Assay results reported in patent publication US20250152516A1, “COMPRESSIBLE SODIUM CAPRATE FORMULATIONS” (AstraZeneca AB, priority 2022, published 2025).
Entries after “also recorded” stand apart in the source; their conditions may differ. l = locked nucleic acid (LNA); [5mC] = 5-methylcytosine; d = 2'-deoxy (DNA)

Key:
Type in all cases: physicochemical
[1] = Compaction properties (tabletability, tablet tensile strength, compaction simulator) of sodium caprate forms; details: tablets of each form; particle sizes about 37-53, 150-300, 600-710 μm; FIGS. 5A-5C
Method: The tabletability of different particle sizes and forms of sodium caprate was obtained by measuring the tensile strength of tablets compressed using a compaction simulator. FIGS. 5A-5C show the results of tabletability with laboratory-scale amounts of sodium caprate with particle sizes of about 37 to 53 μm, of about 150 to 300 μm, and of about 600 to 710 μm, respectively.
Tablets were produced with each of the sodium caprate forms, and compaction properties were assessed.

[2] = as above; details: tablets of each form; high pressure = above approximately 50 MPa
[3] = Dissolution profile of tablets comprising Form A sodium caprate and a macromolecule; details: Example 12 Formulation 1 tablets; pH 6.8 phosphate buffer at 37° C.; FIGS. 20A-20B
Description: The dissolution profiles of tablets comprising Form A sodium caprate and an ASO, prepared according to Example 12, Formulation 1, are illustrated in FIG. 20A. […] (mimicking the small intestinal condition). This allows for maximum absorption enhancement. The dissolution profile of tablets comprising Form A sodium caprate and the MEDI7219 Peptide is illustrated in FIG. 20B. […] (mimicking the small intestinal condition).

[4] = Karl Fischer titration, water content of sodium caprate forms; details: forms prepared as in Example 1
Method: In some embodiments, the water content of sodium caprate is determined by Karl Fischer titration. Karl Fischer titration uses coulometric or volumetric titration to determine trace amounts of water in a sample. Methods of performing Karl Fischer titration are known to the skilled artisan. In some embodiments, Form A or Form B sodium caprate has a lower water content compared with Form C or Form D water content. In some embodiments, the sodium caprate is Form A sodium caprate characterized by a water content by Karl Fischer titration below 2%, below 1.9%, below 1.8%, below 1.7%, below 1.6%, below 1.5%, or below 1.4%. In some embodiments, Form A sodium caprate has a water content of about 0.4% to about 1.7%. Form B sodium caprate has a water content ≤1%. Form C sodium caprate has a water content of about 2% to about 3%, and Form D sodium caprate has a water content of about 2.5% to about 4%. In some embodiments, the sodium caprate used for making the oral tablet has a water content of less than about 2% as measured by Karl Fischer titration. In some embodiments, the sodium caprate has a water content of less than about 1.5%. In some embodiments, the sodium caprate has a water content of about 1%, about 1.1%, about 1.2%, about 1.3%, about 1.4%, about 1.5%, about 1.6%, about 1.7%, about 1.8%, about 1.9%, or about 2.0%. […]

sticking tendency during tableting [2]	Amount of Water (%) [4]	Compound	compaction properties / tabletability [1]	release (dissolution) from tablets [3]
no observable sticking at high pressure	–	CCCCCCCCCC(=O)[O-].[Na+] [Form A, sodium caprate]	best compaction properties	rapid and concomitant release
high sticking tendency	–	CCCCCCCCCC(=O)[O-].[Na+] [Form D, sodium caprate]	poor tabletability; also recorded: worst tabletability	–
high sticking tendency	2-3%	CCCCCCCCCC(=O)[O-].[Na+] [Form C, sodium caprate]	poor tabletability; also recorded: worst tabletability	–
high sticking tendency	–	CCCCCCCCCC(=O)[O-].[Na+] [Form B, sodium caprate]	poor tabletability	–
–	–	GM5CAttctaatagcAGM5C (antisense GCATTCTAATAGCAGC; sugars from the 5' end l3 d10 l3, [5mC] at 2, 16, backbone not given here) [MALAT1, antisense oligonucleotide targeting MALAT1, with LNA nucleosides and 5-methylcytidine, reference compound]	–	rapid and concomitant release
